The record followed here is US10030016B2 (Sunesis Pharmaceuticals, Inc., priority 2009, dated 2018).

For assay [1], the system named is phospho-akt (Thr308) in PC-3 cells. The assay is described as follows: Inhibition of phospho-akt (Thr308) in PC-3 cells, MSD phospho-akt 308 ELISA kit. Conditions: Homo sapiens, 2 hours, no serum, read-out: EC50. It counts as cell-based. Summed up: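 PC-3 cells (15,000/well, overnight in 10% FBS medium) treated 2 h with three-fold diluted compounds in serum-free medium; DMSO high and 5 μM wortmannin low controls. Lysates captured on BSA-blocked MSD plates overnight at 4 °C, then 1 h antibody detection at RT; phospho-Akt Thr308 read by MSD electrochemiluminescence.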
(An ELISA detects its analyte on a solid surface through an enzyme-linked reagent.)

In a further assay the target is PDK1 (Homo sapiens (Human), UniProt O15530). The assay is described as follows: PDK1 kinase assay (coupled PDK1/AKT/FAM-crosstide assay, IMAP fluorescence polarization). It counts as biochemical. Summed up:
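Coupled cascade: 0.75 nM PDK1 (51-359) → 10 nM AKT2 (140-467-PIFtide) → 100 nM FAM-crosstide. ATP 40 μM, 25° C, 30 min. IMAP FP (ex 485/em 530), 2 h binding. ΔmP vs conc, 4-param fit.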

Setting [2] is: inhibition of P308 Akt in PC-3 cells using MSD.
Where [3] appears, read: inhibition of P308 Akt in PC-3 cells, MSD.
Setting [4] is: inhibition of phospo-PDK1 in vitro.

pEC50, pIC50: −log10 of the molar value. Structures can show the parent of a compound that is named as a salt. Where two headings read alike, the source gives them in different places. Bounds are passed on as bounds.

Chain of PDK1 (O15530 51-359): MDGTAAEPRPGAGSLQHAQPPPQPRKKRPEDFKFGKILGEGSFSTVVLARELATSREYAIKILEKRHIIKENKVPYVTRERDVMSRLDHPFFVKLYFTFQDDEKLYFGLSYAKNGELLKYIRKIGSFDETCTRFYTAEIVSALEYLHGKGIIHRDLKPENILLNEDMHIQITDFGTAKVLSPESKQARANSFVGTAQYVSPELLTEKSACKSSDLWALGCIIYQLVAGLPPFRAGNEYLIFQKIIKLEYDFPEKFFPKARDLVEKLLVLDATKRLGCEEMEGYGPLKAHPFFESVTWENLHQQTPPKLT

What is called pEC50 is the negative decadic logarithm of the EC50, by convention in mol/L. In general, pIC50 refers to the negative decadic logarithm of the IC50, by convention in mol/L. The low end stands for a high IC50, the high end for a low IC50. On to `C[C@H](NC(=O)c1cc(C#N)cnc1NCc1ccc(-c2cnc3[nH]c(=O)[nH]c3c2)cc1F)c1ccc(F)cc1` [Example 126, (S)-5-cyano-2-(2-fluoro-4-(2-oxo-2,3-dihydro-1H-imidazo[4,5-b]pyridin-6-yl)benzyl-amino)-N-(1-(4-fluorophenyl)ethyl) nicotinamide], for which the pEC50 in assay [1] (setting [2]) is > 6.00. Further, the pIC50 at PDK1 (inhibition of PDK1 in vitro) was > 7.00.
Take `CN(Cc1ccc(F)c(F)c1)C(=O)c1nc(C#N)cnc1NCc1ccc(-c2cnc3[nH]nc(N)c3c2)cc1` [Example 413, 3-(4-(3-amino-1H-pyrazolo[3,4-b]pyridin-5-yl)benzylamino)-6-cyano-N-(3,4-difluorobenzyl)-N-methylpyrazine-2-carboxamide]: the pEC50 in assay [1] (setting [2]) was > 6.00. In addition, at PDK1 (inhibition of PDK1 in vitro), the pIC50 was > 7.00.
`C[C@H](NC(=O)c1cccnc1NCc1cccc(-c2c[nH]c3ncnc(N)c23)c1)c1ccc(F)c(F)c1` [Example 2.30, (S)-2-(3-(4-amino-7H-pyrrolo[2,3-d]pyrimidin-5-yl)benzylamino)-N-(1-(3,4-difluorophenyl)ethyl) nicotinamide]: in assay [1] (setting [3]), the pEC50 is 5.00 to 6.00. At PDK1 (setting [4]), the pIC50 was > 7.00.
As for `C[C@H](NC(=O)c1cccnc1NC/C=C/c1ccc2c(c1)NC(=O)/C2=C\c1cnc[nH]1)c1ccc(F)cc1` [Example 15.22, 2-((E)-3-((Z)-3-((1H-imidazol-5-yl)methylene)-2-oxoindolin-6-yl)allylamino)-N-((S)-1-(4-fluorophenyl)ethyl) nicotinamide], the pEC50 in assay [1] (setting [3]) was > 6.00. For the same molecule, at PDK1 (setting [4]), the pIC50 is > 7.00.
The matching figures for `C[C@H](NC(=O)c1cccnc1NCc1ccc(-c2ccc3ncnn3c2)s1)c1ccc(F)cc1` [Example 2.4, N-[(1S)-1-(4-fluorophenyl)ethyl]-2-({[5-([1,2,4]triazolo[1,5-a]pyridin-6-yl)thiophen-2-yl]methyl}amino)pyridine-3-carboxamide]: < 5.00 and 5.30 to 6.00.
In the case of `C[C@H](NC(=O)c1cc(C#N)cnc1NCc1ccc(-c2cnc(NCCN(C)C)cn2)cc1)c1ccc(F)cc1` [Example 226, 5-Cyano-2-{4-[5-(2-dimethylamino-ethylamino)-pyrazin-2-yl]-benzylamino}-N-[(S)-1-(4-fluoro-phenyl)-ethyl]-nicotinamide], the pEC50 in assay [1] (setting [2]) is < 5.00. For the same molecule, at PDK1 (inhibition of PDK1 in vitro), the pIC50 was < 5.30.
`Nc1ncnc2ccc(-c3ccc(CNc4ncccc4C(=O)NCc4ccccn4)s3)cc12` [Example 3.25, 2-({[5-(4-aminoquinazolin-6-yl)thiophen-2-yl]methyl}amino)-N-(pyridin-2-ylmethyl)pyridine-3-carboxamide (TFA salt)]: in assay [1] (setting [3]), the pEC50 is < 5.00. At PDK1 (setting [4]), this molecule had a pIC50 of 5.30 to 6.00.
Taken in the same sequence, the figures for `Nc1ncnc2ccc(-c3ccc(CNc4ncc(NC(=O)Cc5ccccc5)cc4C(=O)NCc4ccc(F)c(F)c4)s3)cc12` [Example 8.5.4, 2-({[5-(4-aminoquinazolin-6-yl)thiophen-2-yl]methyl}amino)-N-(3,4-difluorobenzyl)-5-[(phenylacetyl)amino] pyridine-3-carboxamide] were 5.00 to 6.00 and 5.30 to 6.00.
Taken in the same sequence, the figures for `Nc1ncnc2[nH]cc(-c3ccc(CNc4ncccc4C(=O)NCc4ccc(F)c(F)c4)s3)c12` [Example 4.8, 2-(((5-(4-amino-7H-pyrrolo[2,3-d]pyrimidin-5-yl)thiophen-2-yl)methyl)amino)-N-(3,4-difluorobenzyl)nicotinamide] were > 6.00 and > 7.00.
As for `C[C@@H](NC(=O)c1cc(C(F)(F)F)cnc1NCc1ccc(-c2cnc3[nH]nc(N)c3c2)cc1)c1ccc(Br)cc1` [Example 275, (R)-2-(4-(3-amino-1H-pyrazolo[3,4-b]pyridin-5-yl)benzylamino)-N-(1-(4-bromophenyl)ethyl)-5-(trifluoromethyl) nicotinamide], the pEC50 in assay [1] (setting [2]) was < 5.00. On PDK1 (inhibition of PDK1 in vitro), the pIC50 is < 5.30.
The matching figures for `Nc1n[nH]c2ncc(-c3ccc(CNc4ncc(C(F)(F)F)cc4C(=O)Nc4ccc(F)cc4)cc3)nc12` [Example 184]: > 6.00 and > 7.00.
The matching figures for `C[C@H](NC(=O)c1cc(C#N)cnc1NCc1ncc(-c2cnc3[nH]ncc3c2)cn1)c1ccc(F)cc1` [Example 64, 5-Cyano-N-[(S)-1-(4-fluoro-phenyl)-ethyl]-2-{[5-(1H-pyrazolo[3,4-b]pyridin-5-yl)-pyrimidin-2-ylmethyl]-amino}-nicotinamide]: < 5.00 and < 5.30.
For the molecule `Nc1ncnc2ccc(-c3ccc(CNc4nccnc4C(=O)NCc4cc(F)cc(F)c4)s3)cc12` [Example 3.76, 3-({[5-(4-aminoquinazolin-6-yl)thiophen-2-yl]methyl}amino)-N-(3,5-difluorobenzyl)pyrazine-2-carboxamide (TFA salt)], the pEC50 in assay [1] (setting [3]) is > 6.00. For the same molecule, the pIC50 on PDK1 (setting [4]) is > 7.00.
For `COc1cc(-c2ccc(CNc3ncc(C#N)cc3C(=O)N[C@@H](C)c3ccc(F)cc3)cc2)cnc1N` [Example 133, (S)-2-(4-(6-amino-5-methoxypyridin-3-yl)benzylamino)-5-cyano-N-(1-(4-fluorophenyl)ethyl)nicotinamide], in assay [1] (setting [2]), the pEC50 was > 6.00. In addition, the pIC50 against PDK1 (inhibition of PDK1 in vitro) is > 7.00.
As to `C[C@H](NC(=O)c1cc(C#N)cnc1NCc1ccc(-c2cnc(N)c(N3CCNCC3)n2)cc1)c1ccc(F)cc1` [Example 191, 2-[4-(3′-Amino-3,4,5,6-tetrahydro-2H-[1,2′]bipyrazinyl-6′-yl)-benzylamino]-5-cyano-N-[(S)-1-(4-fluoro-phenyl)-ethyl]-nicotinamide], the pEC50 in assay [1] (setting [2]) is > 6.00. The negative logarithm of the IC50 (pIC50) on PDK1 (inhibition of PDK1 in vitro) is > 7.00.
Take `Nc1ncnc2ccc(-c3ccc(CNc4nccnc4C(=O)NCc4ccc(F)c(F)c4)s3)cc12` [Ex. 10.1]: the pEC50 in assay [1] (setting [3]) is 5.00 to 6.00. Besides, the pIC50 at PDK1 (setting [4]) is > 7.00.
In the case of `O=C(NCc1ccc(F)c(F)c1)c1cccnc1NCc1cccc(-c2ccc3ncnc(NC4CC4)c3c2)c1` [Example 6.3, 2-(3-(4-(cyclopropylamino)quinazolin-6-yl)benzylamino)-N-(3,4-difluorobenzyl)-nicotinamide], the pEC50 in assay [1] (setting [3]) was < 5.00. For the same molecule, the pIC50 against PDK1 (setting [4]) is > 7.00.
The matching figures for `O=C(NCc1ccc(F)c(F)c1)c1cccnc1NCc1ccc(-c2ccc3ncnc(NC4CC4)c3c2)s1` [Example 4.10, 2-(((5-(4-(cyclopropylamino)quinazolin-6-yl)thiophen-2-yl)methyl)amino)-N-(3,4-difluorobenzyl)nicotinamide]: 5.00 to 6.00 and > 7.00.
The matching figures for `CS(=O)(=O)Nc1cnc(NCc2ccc(-c3ccc4ncnc(N)c4c3)s2)c(C(=O)NCc2ccc(F)c(F)c2)c1` [Ex. 8.6.1, 2-({[5-(4-aminoquinazolin-6-yl)thiophen-2-yl]methyl}amino)-N-(3,4-difluorobenzyl)-5-[(methylsulfonyl)amino]pyridine-3-carboxamide]: > 6.00 and > 7.00.
Turning to `NCCNc1n[nH]c2ncc(-c3ccc(CNc4ncc(C(F)(F)F)cc4C(=O)Nc4ccc(F)cc4)cc3)cc12` [Example 154, 2-(4-(3-(2-amino-ethylamino)-1H-pyrazolo [3,4-b]pyridin-5-yl)benzylamino)-N-(4-fluorophenyl)-5-(trifluoromethyl) nicotinamide], the pEC50 in assay [1] (setting [2]) was > 6.00. Moreover, on PDK1 (inhibition of PDK1 in vitro), the pIC50 was > 7.00.
For `C[C@H](NC(=O)c1nc(C#N)cnc1NCc1ccc(-c2cnc3[nH]ncc3c2)cc1)c1ccc(F)c(F)c1` [Example 390, 6-Cyano-3-[4-(1H-pyrazolo [3,4-b]pyridin-5-yl)-benzylamino]-pyrazine-2-carboxylic acid [(S)-1-(3,4-difluoro-phenyl)-ethyl]-amide], in assay [1] (setting [2]), the pEC50 was > 6.00. In addition, the pIC50 against PDK1 (inhibition of PDK1 in vitro) is > 7.00.
In the case of `Nc1ncc(-c2ccc(CNc3ncc(C(F)(F)F)cc3C(=O)Nc3ccc(F)cc3)cc2)nc1NCC(O)CO` (stereo not shown) [Example 245, 2-{4-[5-Amino-6-(2,3-dihydroxy-propylamino)-pyrazin-2-yl]-benzylamino}-N-(4-fluoro-phenyl)-5-trifluoromethyl-nicotinamide], the pEC50 in assay [1] (setting [2]) was > 6.00. The pIC50 against PDK1 (inhibition of PDK1 in vitro) is > 7.00.
Take `C[C@H](NC(=O)c1nc(C#N)cnc1NCc1ccc(-c2cnc(N)c(CCCO)n2)cc1)c1ccc(F)c(F)c1` [Example 95, 3-{4-[5-Amino-6-(3-hydroxy-propyl)-pyrazin-2-yl]-benzyl-amino}-6-cyano-pyrazine-2-carboxylic acid [(S)-1-(3,4-difluoro-phenyl)-ethyl]-amide]: the pEC50 in assay [1] (setting [2]) was > 6.00. For the same molecule, at PDK1 (inhibition of PDK1 in vitro), the pIC50 is > 7.00.
As to `Nc1ncnc2ccc(-c3ccc(CNc4ncc([N+](=O)[O-])cc4C(=O)NCc4ccc(F)c(F)c4)s3)cc12` [Ex. 8.2, 2-{[5-(4-Amino-quinazolin-6-yl)-thiophen-2-ylmethyl]-amino}-N-(3,4-difluoro-benzyl)-5-nitro-nicotinamide], the pEC50 in assay [1] (setting [3]) was > 6.00. In addition, the pIC50 against PDK1 (setting [4]) is > 7.00.
In the case of `C#Cc1cnc(NCc2ccc(-c3ccc4ncnc(N)c4c3)s2)c(C(=O)NCc2ccc(F)c(F)c2)c1` [Ex. 8.10, 2-(((5-(4-aminoquinazolin-6-yl)thiophen-2-yl)methyl)amino)-N-(3,4-difluorobenzyl)-5-ethynylnicotinamide], the pEC50 in assay [1] (setting [3]) was > 6.00. Also, the pIC50 on PDK1 (setting [4]) was > 7.00.
Taken in the same sequence, the figures for `O=C(NCC1CCCC1)c1cccnc1NCc1cccc(-c2c[nH]c3ncccc23)c1` [Example 1.8, 2-(3-(1H-pyrrolo[2,3-b]pyridin-3-yl)benzylamino)-N-(cyclopentylmethyl)nicotinamide] were 5.00 to 6.00 and 6.00 to 7.00.
